Experimental findings from ChEMBL document CHEMBL1201862, “PubChem BioAssay data set” (2004) are described below.

Test systems include KM-20L2; M19-MEL; RXF 631; LXFL 529; XF498; DMS-273; DMS-114; SNB-78; HOP-18.
Common to all, as to assay: NCI-60 cell line screen, 48 h

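A five-concentration, 48-hour dose response in 96-well plates underlies each endpoint, interpolated linearly between surrounding concentrations. Abbreviation: GI50, concentration required for 50% inhibition of growth.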 The source made the active and inactive calls. No stated cut-off is given here; in the data, active = GI50 up to about 1.1 µM and inactive = higher.

`Oc1ccc2c(O)cc(-c3ccccc3)nc2c1`: the GI50 in the assay on KM-20L2 is 19.9 µM (inactive); with M19-MEL it was 19.5 µM (inactive); in the assay on RXF 631 it was 30.5 µM (inactive); in the assay on LXFL 529, 26.5 µM (inactive); in the assay on XF498 it was 25.1 µM (inactive); in the assay with DMS-273 it was 28.1 µM (inactive). The GI50 in the assay with DMS-114 was 18.7 µM (inactive); with SNB-78, 48 µM (inactive); in the assay with HOP-18, 26.2 µM (inactive).

`CCOP(=O)(OCC)C(C(=O)OC)C(=O)C(=O)Nc1cccc([N+](=O)[O-])c1` (stereo not given): the GI50 with KM-20L2, in the assay with M19-MEL, in the assay with RXF 631, with LXFL 529, with XF498 and with DMS-273 was > 100 µM (inactive) throughout. Further, the GI50 in the assay with DMS-114, in the assay with SNB-78 and in the assay on HOP-18 was > 100 µM (inactive) each time.

On to `Cc1c(Cl)ccc2c1NC(=O)C2(O)CC(=O)c1ccc2ccccc2c1` (stereo not given), for which the GI50 in the assay on KM-20L2 is 69 µM (inactive); in the assay on RXF 631 it was 57.1 µM (inactive); in the assay with XF498 it was > 100 µM (inactive); with DMS-114, 21.1 µM (inactive); in the assay with HOP-18, > 100 µM (inactive).

On to `Nc1ccn(CCNCCn2cnc3nc(N)[nH]c(=O)c32)c(=O)n1`, for which the GI50 in the assay on KM-20L2, in the assay with RXF 631, in the assay with LXFL 529, in the assay on XF498, in the assay on DMS-114 and with SNB-78 was > 100 µM (inactive) in each case. Besides, in the assay with HOP-18, the GI50 was > 100 µM (inactive).

With `Cc1ccc([N+](=O)[O-])cc1NC(=O)C(=O)Cc1nc2ccc(C(=O)c3ccccc3)cc2nc1O`, the GI50 with KM-20L2, in the assay with M19-MEL, in the assay on RXF 631, with LXFL 529, in the assay with XF498 and in the assay with DMS-273 was > 100 µM (inactive) in each case. The GI50 in the assay on DMS-114 was 90.6 µM (inactive); in the assay with HOP-18, > 100 µM (inactive).

As to `COc1ccc2c(c1OC)C(=O)c1cnccc1C2=O`, the GI50 with KM-20L2, in the assay on M19-MEL, in the assay on RXF 631, in the assay on LXFL 529, in the assay on XF498 and in the assay with DMS-273 was > 100 µM (inactive) each time. Further, the GI50 in the assay on DMS-114, in the assay with SNB-78 and with HOP-18 was > 100 µM (inactive) each time.

In the case of `CN(C)c1ccc(C(=C2C=CC(=[N+](C)C)C=C2)c2ccc(N(C)C)cc2)cc1` [GENTIAN VIOLET], the GI50 in the assay on KM-20L2 is 0.206 µM (active); with M19-MEL, 0.173 µM (active); with RXF 631, 0.185 µM (active); in the assay with LXFL 529, 0.0579 µM (active); with XF498, 0.0363 µM (active); with DMS-273, 0.22 µM (active). Moreover, the figures for the GI50 in the assay with DMS-114 and with SNB-78 were 0.13 µM (active) and 0.637 µM (active), respectively.
